The source of these data is the supplement of paper PMC10307832.

What all share (assay): relative viability (nuclei count vs DMSO), 5 days (fraction); higher = more cells survive
Compound in the assay “Ibrutinib + Tozasertib”: C=CC(=O)N1CCC[C@@H](n2nc(-c3ccc(Oc4ccccc4)cc3)c3c(N)ncnc32)C1 [Ibrutinib] + Cc1cc(Nc2cc(N3CCN(C)CC3)nc(Sc3ccc(NC(=O)C4CC4)cc3)n2)n[nH]1 [Tozasertib] (partner 0.1 µM)
Put shortly: (§1)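 After 5 days of treatment, lung cancer cells in 1536-well plates were fixed and stained in a single step (final 0.05% Triton X-100, 1% formaldehyde, 1 ug/ml Hoechst) and their nuclei counted on 4× images. Treatment had been applied by pin tool the day after seeding as one drug alone or as a fixed anchor-drug dose with five library-drug doses (not always all listed) in √10 steps. Relative viability is the nuclei count of treated wells divided by that of vehicle wells, and values are medians of duplicate plates.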

Compound in the assay “Ibrutinib + Alpelisib”: C=CC(=O)N1CCC[C@@H](n2nc(-c3ccc(Oc4ccccc4)cc3)c3c(N)ncnc32)C1 [Ibrutinib] + Cc1nc(NC(=O)N2CCC[C@H]2C(N)=O)sc1-c1ccnc(C(C)(C)C(F)(F)F)c1 [Alpelisib] (partner 2 µM)
Put shortly: as §1

Compound in the assay “BMX-IN-1 + Pictilisib”: C=CC(=O)Nc1cc(-n2c(=O)ccc3cnc4ccc(-c5ccc(NS(C)(=O)=O)cc5)cc4c32)ccc1C [BMX-IN-1] + CS(=O)(=O)N1CCN(Cc2cc3nc(-c4cccc5[nH]ncc45)nc(N4CCOCC4)c3s2)CC1 [Pictilisib] (partner 1 µM)
The essentials:
as §1

Compound in the assay “BMX-IN-1 + Pemetrexed”: C=CC(=O)Nc1cc(-n2c(=O)ccc3cnc4ccc(-c5ccc(NS(C)(=O)=O)cc5)cc4c32)ccc1C [BMX-IN-1] + Nc1nc2[nH]cc(CCc3ccc(C(=O)N[C@@H](CCC(=O)O)C(=O)O)cc3)c2c(=O)[nH]1 [Pemetrexed] (partner 0.2 µM)
Put shortly:
as §1

With SK-MES-1, the relative viability came out at 0.997 in the assay with Ibrutinib + Tozasertib (first compound 0.005 µM); 0.872 with Ibrutinib + Tozasertib (first compound 0.01581 µM); 0.965 in the assay with Ibrutinib + Tozasertib (first compound 0.05 µM); 1.03 with Ibrutinib + Tozasertib (first compound 0.1581 µM); 0.669 in the assay with Ibrutinib + Tozasertib (first compound 0.5 µM); 0.441 in the assay with Ibrutinib + Alpelisib (first compound 0.005 µM). The relative viability with Ibrutinib + Alpelisib (first compound 0.01581 µM) was 0.842; with Ibrutinib + Alpelisib (first compound 0.05 µM), 0.599; with Ibrutinib + Alpelisib (first compound 0.1581 µM), 1; with Ibrutinib + Alpelisib (first compound 0.5 µM), 0.379; with BMX-IN-1 + Pictilisib (first compound 0.02 µM), 0.345; with BMX-IN-1 + Pictilisib (first compound 0.2 µM) it was 0.383. Also, the relative viability with BMX-IN-1 + Pictilisib (first compound 0.6325 µM) came to 0.414; with BMX-IN-1 + Pictilisib (first compound 2 µM), 0.344; with BMX-IN-1 + Pemetrexed (first compound 0.02 µM), 1.11; in the assay with BMX-IN-1 + Pemetrexed (first compound 0.2 µM), 1.11; with BMX-IN-1 + Pemetrexed (first compound 0.6325 µM), 1.03; with BMX-IN-1 + Pemetrexed (first compound 2 µM) it was 0.859.
